The values below come from patent publication US10344335B2, “Mutant calreticulin for the diagnosis of myeloid malignancies” (CEMM—FORSCHUNGSZENTRUM FUER MOLEKULARE MEDIZIN GMBH, priority 2013, dated 2019).

In the experiment the test system is Ba/F3 cells expressing empty vector (GFP), CALR wild type or CALR del52. In words: Sensitivity of Ba/F3 cells to the inhibitor SAR302503 (CellTiter-Glo cell viability). The format is cell-based, murine. As to conditions: Ba/F3 cells expressing CALR wild type vs CALR del52; 48 hours; 10 ng/ml interleukin-3; dilution series, highest concentration 40 μM; listed as JAK2 kinase inhibitor. Here is the method: Ba/F3 cells expressing the empty vector (GFP), CALR wild type (CALR wt-GFP) or CALR mutant (CALR del52-GFP) were analyzed by defining cell viability after 48 hours in presence of decreasing SAR302503. For relative viability, relative luminescence units were normalized to the DMSO control. Error bars represent standard error of the mean.
To define the sensitivity to the inhibitor SAR302503 (Sanofi), Ba/F3 cells were plated in 96-well plates at 25000 cells per well in triplicates on a dilution series of SAR302503 (highest concentration 40 μM) and in presence of 10 ng/ml interleukin-3. After 48 hours cell viability was determined by the CellTiter-Glo® Luminescent Cell Viability Assay (Promega).

SMILES strings stand for the structures.

In the case of `Cc1cnc(Nc2ccc(OCCN3CCCC3)cc2)nc1Nc1cccc(S(=O)(=O)NC(C)(C)C)c1` [SAR302503], the “sensitivity of cells to SAR302503 (cell viability)” value is “suppressed equally”.
